According to patent publication US9096591B2, “Tetracyclic compounds” (Medivation Technologies, Inc., priority 2007, dated 2015):
Where two headings read alike, the source gives them in different places.

Legend:
[1] = target: T1, human recombinant histamine H1 receptor (Homo sapiens, UniProt P35367); assay: Histamine H1 radioligand binding ([3H]Pyrilamine)
T1 construct: expressed in transfected cells; host or cells: CHO cells
Outline: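 CHO-expressed receptor in modified Tris-HCl buffer (50 mM, pH 7.4; 2 mM MgCl2, 100 mM NaCl, 250 mM sucrose); bound ligand measured after filtration and washing.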

[2] = target: T2, human recombinant adrenergic α2B receptor (Homo sapiens, UniProt P18089); assay: Adrenergic α2B radioligand binding ([3H]Rauwolscine); set-up: Inhibition of ligand binding, Adren. alpha2B: concentration or dose not given beside the values; conditions: for Inhibition of ligand binding, Adren. alpha2B: percent inhibition of specific binding
T2 construct: expressed in transfected cells; host or cells: CHO-K1 cells
T2 sequence (P18089 1-450): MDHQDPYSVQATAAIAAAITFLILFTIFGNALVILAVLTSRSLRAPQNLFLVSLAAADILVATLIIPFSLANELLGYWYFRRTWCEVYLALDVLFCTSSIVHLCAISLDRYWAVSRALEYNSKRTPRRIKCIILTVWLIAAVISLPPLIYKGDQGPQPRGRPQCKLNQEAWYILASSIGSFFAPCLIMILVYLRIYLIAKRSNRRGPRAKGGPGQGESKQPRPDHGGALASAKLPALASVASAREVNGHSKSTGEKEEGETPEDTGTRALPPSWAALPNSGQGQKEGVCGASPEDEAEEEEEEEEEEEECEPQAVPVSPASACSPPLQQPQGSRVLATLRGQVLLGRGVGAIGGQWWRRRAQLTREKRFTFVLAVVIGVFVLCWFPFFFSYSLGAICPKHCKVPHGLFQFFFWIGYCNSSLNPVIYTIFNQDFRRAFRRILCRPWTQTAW
Experimental: To evaluate in radioligand binding assays the activity of compounds of the invention, human recombinant adrenergic α2B receptor expressed in Chinese hamster ovary (CHO-K1) cells (Uhlen S et al. Eur J. Pharmacol. 343(1):93, 1998) in a modified Tris-HCl buffer (50 mM Tris-HCl, pH 7.4, 12.5 mM MgCl2, 1 mM EDTA, 0.2% BSA) was used. Compounds of the invention were incubated with 2.5 nM [^3H]Rauwolscine for 60 minutes at 25° C. Non-specific binding was estimated in the presence of 10 μM Prozosin. Receptor proteins were filtered and washed, the filters were then counted to determine [^3H]Rauwolscine specifically bound. […] Biochemical assay results are presented as the percent inhibition of specific binding in Table 6.

[3] = target: T3, human recombinant dopamine D2L receptor (Homo sapiens, UniProt P14416); assay: Dopamine D2L radioligand binding ([3H]Spiperone); conditions: percent inhibition of specific binding
T3 construct: expressed in transfected cells; host or cells: CHO cells
Experimental: Non-specific binding was estimated in the presence of 10 μM Haloperidol. Receptor proteins were filtered and washed, the filters were then counted to determine [^3H]Spiperone specifically bound. […] Biochemical assay results are presented as the percent inhibition of specific binding in Table 6.

[4] = target: T4, human recombinant serotonin (5-Hydroxytryptamine) 5-HT2C receptor (Homo sapiens, UniProt P28335); assay: Serotonin 5-HT2C radioligand binding ([3H]Mesulergine); set-up: Inhibition of ligand binding, Ser. 5-HT2C: concentration or dose not given beside the values; conditions: for Inhibition of ligand binding, Ser. 5-HT2C: percent inhibition of specific binding
T4 construct: expressed in transfected cells; host or cells: CHO-K1 cells
T4 sequence (P28335 33-458): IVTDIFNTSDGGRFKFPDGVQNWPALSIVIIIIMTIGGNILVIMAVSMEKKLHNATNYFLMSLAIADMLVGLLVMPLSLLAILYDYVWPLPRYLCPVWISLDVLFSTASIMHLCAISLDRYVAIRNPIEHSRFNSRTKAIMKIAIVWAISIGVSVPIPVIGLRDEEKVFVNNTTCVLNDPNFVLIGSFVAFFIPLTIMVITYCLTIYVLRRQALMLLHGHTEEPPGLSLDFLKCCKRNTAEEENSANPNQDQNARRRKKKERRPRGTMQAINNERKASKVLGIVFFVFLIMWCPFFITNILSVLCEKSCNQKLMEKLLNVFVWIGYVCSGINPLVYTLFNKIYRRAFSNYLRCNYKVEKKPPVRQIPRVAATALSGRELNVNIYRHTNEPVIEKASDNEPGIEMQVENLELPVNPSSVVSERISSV
Experimental: (§1) Compounds of the invention were incubated with 1 nM [^3H]Mesulergine for 60 minutes at 25° C. Non-specific binding was estimated in the presence of 1 μM Mianserin. Receptor proteins were filtered and washed, the filters were then counted to determine [^3H]Mesulergine specifically bound. […] Biochemical assay results are presented as the percent inhibition of specific binding in Table 6.

[5] = target: T5, human recombinant serotonin (5-Hydroxytryptamine) 5-HT6 receptor (Homo sapiens, UniProt P50406); assay: Serotonin 5-HT6 radioligand binding ([3H]LSD); set-up: Inhibition of ligand binding, Ser. 5-HT6: concentration or dose not given beside the values; conditions: for Inhibition of ligand binding, Ser. 5-HT6: percent inhibition of specific binding
T5 construct: expressed in transfected cells; host or cells: human HeLa cells
Text: Receptor proteins were filtered and washed, the filters were then counted to determine [3H]LSD specifically bound. […] Biochemical assay results are presented as the percent inhibition of specific binding in Table 6.

[6] = target: T6, human recombinant serotonin (5-Hydroxytryptamine) 5-HT2A receptor (Homo sapiens, UniProt P28223); assay: Serotonin 5-HT2A radioligand binding ([3H]Ketanserin); conditions: for Inhibition of ligand binding, Ser. 5-HT2A: percent inhibition of specific binding
T6 construct: expressed in transfected cells; host or cells: CHO-K1 cells
Experimental: as §1, with “with 0.5” for “with 1”, “nM [^3H]Ketanserin” for “nM [^3H]Mesulergine”, “determine [^3H]Ketanserin” for “determine [^3H]Mesulergine”

[7] = 1 μM compound, […] [3H]Pyrilamine, read-out: Histamine Binding H1, percent inhibition of specific binding
[8] = percent inhibition of specific binding, screened at 1 μM, read-out: Inhibition of ligand binding, Hist. H1

T6 sequence (P28223 whole entry): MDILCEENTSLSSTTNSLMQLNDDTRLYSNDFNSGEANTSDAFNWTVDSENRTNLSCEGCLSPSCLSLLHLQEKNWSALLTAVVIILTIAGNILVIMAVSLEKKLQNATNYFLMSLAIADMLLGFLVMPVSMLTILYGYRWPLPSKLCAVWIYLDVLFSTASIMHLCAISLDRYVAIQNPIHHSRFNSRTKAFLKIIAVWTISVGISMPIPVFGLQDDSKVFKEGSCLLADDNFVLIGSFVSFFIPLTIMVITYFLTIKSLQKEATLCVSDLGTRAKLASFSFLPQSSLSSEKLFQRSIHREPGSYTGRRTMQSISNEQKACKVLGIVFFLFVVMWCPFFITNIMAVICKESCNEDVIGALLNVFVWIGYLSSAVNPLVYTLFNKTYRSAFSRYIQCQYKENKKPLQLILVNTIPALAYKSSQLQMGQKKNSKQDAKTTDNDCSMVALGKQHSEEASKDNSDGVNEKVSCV
T1 sequence (P35367 whole entry): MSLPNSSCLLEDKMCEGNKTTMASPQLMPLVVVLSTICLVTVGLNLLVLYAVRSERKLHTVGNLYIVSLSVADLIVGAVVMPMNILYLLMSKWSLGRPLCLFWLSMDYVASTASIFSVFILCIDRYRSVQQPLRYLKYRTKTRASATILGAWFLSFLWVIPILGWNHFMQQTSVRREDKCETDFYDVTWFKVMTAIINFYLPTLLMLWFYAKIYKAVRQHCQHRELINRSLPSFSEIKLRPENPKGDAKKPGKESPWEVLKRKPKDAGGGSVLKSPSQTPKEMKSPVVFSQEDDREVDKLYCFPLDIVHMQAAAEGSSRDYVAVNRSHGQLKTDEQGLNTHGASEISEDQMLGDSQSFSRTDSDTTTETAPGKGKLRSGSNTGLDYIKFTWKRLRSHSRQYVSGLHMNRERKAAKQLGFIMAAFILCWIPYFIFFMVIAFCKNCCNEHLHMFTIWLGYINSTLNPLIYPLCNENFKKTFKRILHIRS
T3 sequence (P14416 whole entry): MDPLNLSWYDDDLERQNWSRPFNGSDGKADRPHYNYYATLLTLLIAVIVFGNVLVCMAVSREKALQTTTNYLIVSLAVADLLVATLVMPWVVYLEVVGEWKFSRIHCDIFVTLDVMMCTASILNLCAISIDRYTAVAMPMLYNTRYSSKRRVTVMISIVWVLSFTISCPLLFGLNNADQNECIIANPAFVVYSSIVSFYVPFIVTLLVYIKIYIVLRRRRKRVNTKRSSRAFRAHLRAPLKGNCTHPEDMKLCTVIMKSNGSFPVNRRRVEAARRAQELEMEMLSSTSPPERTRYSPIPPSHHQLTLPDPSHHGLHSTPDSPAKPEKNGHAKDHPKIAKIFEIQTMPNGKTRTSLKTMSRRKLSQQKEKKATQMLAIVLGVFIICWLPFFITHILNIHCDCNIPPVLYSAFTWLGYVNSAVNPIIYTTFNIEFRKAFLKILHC
T5 sequence (P50406 whole entry): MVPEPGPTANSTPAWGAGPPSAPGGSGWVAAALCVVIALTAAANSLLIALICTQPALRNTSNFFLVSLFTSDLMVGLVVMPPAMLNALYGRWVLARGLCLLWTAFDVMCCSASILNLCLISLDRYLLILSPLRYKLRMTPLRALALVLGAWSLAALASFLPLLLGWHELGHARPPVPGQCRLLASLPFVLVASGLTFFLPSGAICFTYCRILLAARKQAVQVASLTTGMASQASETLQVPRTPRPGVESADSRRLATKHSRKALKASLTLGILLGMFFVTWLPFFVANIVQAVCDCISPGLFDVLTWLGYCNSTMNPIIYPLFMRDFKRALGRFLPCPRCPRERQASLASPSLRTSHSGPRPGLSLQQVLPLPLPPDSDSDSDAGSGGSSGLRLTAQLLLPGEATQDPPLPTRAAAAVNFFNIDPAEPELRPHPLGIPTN

SMILES	inhibition at 1 µM [1, 7]	inhibition at 1 µM [1, 8]	Inhibition of ligand binding, Adren. alpha2B [2]	Inhibition of ligand binding, Dop. D2L [3]	Inhibition of ligand binding, Ser. 5-HT2C [4]	Inhibition of ligand binding, Ser. 5-HT6 [5]	Inhibition of ligand binding, Ser. 5-HT2A [6]	Hist. H1 ([1]; inhibition profile)	Adren. alpha2B ([2]; inhibition profile)	Ser. 5-HT2A ([6]; inhibition profile)	Ser. 5-HT2C ([4]; inhibition profile)	Ser. 5-HT6 ([5]; inhibition profile)
CC1CCN(C(=O)Cn2c3c(c4cc(Cl)ccc42)CN(C)CC3)CC1 [Compound 237, 2-(8-chloro-1,2,3,4-tetrahydro-2-methylpyrido[4,3-b]indol-5-yl)-1-(4-methylpiperidin-1-yl)ethanone]	77%	77%	12%	−1%	36%	20%						
CC(=O)N1CCN(C(=O)Cn2c3c(c4cc(Cl)ccc42)CN(C)CC3)CC1 [Compound 297, 1-(4-Acetyl-piperazin-1-yl)-2-(8-chloro-2-methyl-1,2,3,4-tetrahydro-pyrido[4,3-b]indol-5-yl)-ethanone]		43%	7%	0%	11%	9%						
CN1CCc2c(c3cc(Cl)ccc3n2CC(=O)N2CCOCC2)C1 [Compound 238, 2-(8-chloro-1,2,3,4-tetrahydro-2-methylpyrido[4,3-b]indol-5-yl)-1-morpholinoethanone]	26%	26%	14%	−1%	20%	5%						
Cc1ccc2c(c1)c1c(n2CCN2CCCC2)CCN(C)C1 [Compound 221, 2,3,4,5-tetrahydro-2,8-dimethyl-5-(2-(pyrrolidin-1-yl)ethyl)-1H-pyrido[4,3-b]indole]	78%	78%	26%		69%	29%	46%					
Cc1ccc2c(c1)c1c(n2CCc2ccc(C(=O)O)nc2)CCN(C)C1 [Compound 255]	71%	71%	4%		11%	2%	1%					
CN1CCc2c(c3ccccc3n2CCc2ccccn2)C1 [Compound 329, 2,3,4,5-tetrahydro-2-methyl-5-(2-(pyridin-2-yl)ethyl)-1H-pyrido[4,3-b]indole]		18%	68%		54%	15%	70%					
Cc1ccc2c(c1)c1c(n2CCc2ccc(C)nc2)CC[N+](C)([O-])C1 (stereo not drawn) [Example 93, 2,8-dimethyl-5-(2-(6-methylpyridin-3-yl)ethyl)-2,3,4,5-tetrahydro-1H-pyrido[4,3-b]indole 2-oxide]								68	36	4	9	11
CCN1CCc2c(c3cc(C)ccc3n2Cc2ccc(C)nc2)C1 [Compound 138, 2-ethyl-2,3,4,5-tetrahydro-8-methyl-5-((6-methylpyridin-3-yl)methyl)-1H-pyrido[4,3-b]indole]	68%	68%	19%		5%	22%	14%					
Cc1ccc2c(c1)c1c(n2CCc2ccc(C)nc2)CCNC1 [Compound 230, 2,3,4,5-tetrahydro-8-methyl-5-(2-(6-methylpyridin-3-yl)ethyl)-1H-pyrido[4,3-b]indole]	46%	93%	104%		36%	45%	33%					
Cc1ccc2c(c1)c1c(n2CCc2ccccn2)CCN(C)C1 [Compound 21, 2,3,4,5-tetrahydro-2,8-dimethyl-5-(2-(pyridin-2-yl)ethyl)-1H-pyrido[4,3-b]indole]	79%	79%	114%		87%	79%	94%					
Cc1ccc2c(c1)c1c(n2CCC(=O)N2CCC(N)CC2)CCN(C)C1 [Compound 231, 1-(4-aminopiperidin-1-yl)-3-(1,2,3,4-tetrahydro-2,8-dimethylpyrido[4,3-b]indol-5-yl)propan-1-one]	-11%	-11%	11%		49%	3%	5%					
Cc1ccc2c(c1)c1c(n2CCc2ccc(C)nc2)C(Br)C(=O)N(C)C1 (stereo not drawn) [Compound 232, 4-bromo-1,2-dihydro-2,8-dimethyl-5-(2-(6-methylpyridin-3-yl)ethyl)-4H-pyrido[4,3-b]indol-3(5H)-one]	-6%	-6%	8%		2%	−7%	−10%					
CN1CCc2c(c3cc(I)ccc3n2CCc2ccccc2F)C1 [Compound 89, 5-(2-fluorophenethyl)-2,3,4,5-tetrahydro-8-iodo-2-methyl-1H-pyrido[4,3-b]indole]	97%	97%	116%		97%	103%	90%					
CCN1CCc2c(c3ccccc3n2CCc2ccncc2)C1 [Compound 5]	82%	82%	78%		9%	1%	55%					
CN1CCc2c(c3ccccc3n2CCc2ccncc2)C1 [Compound 10, 2,3,4,5-tetrahydro-2-methyl-5-(2-(pyridin-4-yl)ethyl)-1H-pyrido[4,3-b]indole]	88%	88%	92%		53%	32%	69%					
